Test results: patent publication US9421204B2, “Oligomer modified diaromatic substituted compounds” (priority 2010, dated 2016)
Structures can show the parent of a compound that is named as a salt.

How the values were obtained:
[1] = pKa determination (Sirius GLpKa); format: physicochemical
Procedure: The Sirius GLpKa instrument is used to determine the pKa and Log P. A blank standardization has to be completed first and passed in order to conduct the compound experiments. The solutions used by the instrument for the blank titration include water, a pH solution, and a surfactant (TRITON X-100). The TRITON X-100 was purchased commercially from Sirus. The 0.5% solution of TRITON X-100 was used in the experiment. In a 1 L volumetric flask 5 mls of TRITON X-100 is added and MILLI Q water to volume. The vessels used by the instrument were filled to ⅓ of their volume with each solution. Therefore the assay tray contains one vessel for water, pH solution, and surfactant for the blank run. The temperature of the water bath for the instrument is 25° C. The blank is calculated as an average of three “good” experiments. The “good” was denoted by a green check mark next to the assay number in the computer software. Once the blank was run successfully the instrument was ready to conduct the experiments.
The pKa has to be determined first in order to calculate the Log P. The API is used to determine the pKa needed for the Log P experiment followed by the conjugates. The base compound was first weighed into a vessel. The amount weighed for each sample was 10% of the molecular weight of the compound. The same procedure was followed for each conjugate. The vessels were placed in the assay tray of the instrument. A method had to be set up for the pKa run. The experimental parameters are entered into the computer software. These included sample weight, molecular weight, assay type (aqueous pKa), number of assays (three), and titration range (generally 3.5-12). The run was started. There are three measurements for each run that are averaged to obtain the final results from the data points collected in the calculation software. All runs were denoted as “good” by the green check mark next to the assay number.

[2] = Log P determination (Sirius GLpKa); format: physicochemical
Procedure: The Sirius GLpKa instrument is used to determine the pKa and Log P. A blank standardization has to be completed first and passed in order to conduct the compound experiments. The solutions used by the instrument for the blank titration include water, a pH solution, and a surfactant (TRITON X-100). The TRITON X-100 was purchased commercially from Sirus. The 0.5% solution of TRITON X-100 was used in the experiment. In a 1 L volumetric flask 5 mls of TRITON X-100 is added and MILLI Q water to volume. The vessels used by the instrument were filled to ⅓ of their volume with each solution. Therefore the assay tray contains one vessel for water, pH solution, and surfactant for the blank run. The temperature of the water bath for the instrument is 25° C. The blank is calculated as an average of three “good” experiments. The “good” was denoted by a green check mark next to the assay number in the computer software. Once the blank was run successfully the instrument was ready to conduct the experiments. An additional method has to be set up for the Log P determinations for each compound. The conjugates are weighed into vessels in the same manner as for the previous experiment, i.e., 10% of the molecular weight. The vessels are placed in the assay tray of the instrument. The experimental parameters are entered into the computer. These included sample weight, molecular weight, assay type (Partition Log P), number of assays (three), and pKa value of the parent drug from the previous experiment. The run was started. There are three measurements for each run that are averaged to obtain the final results from the data points collected in the calculation software. All runs were denoted as “good” by the green check mark next to the assay number.

[3] = Toxicity XTT in CEM-SS cells (cytoprotection assay); format: cell-based; conditions: human, CEM-SS TC50
Procedure: (§1) Cell Preparation—CEM-SS cells were passaged in T-75 flasks prior to use in the antiviral assay. On the day preceding the assay, the cells were split 1:2 to assure they were in an exponential growth phase at the time of infection. Total cell and viability quantification was performed using a hemocytometer and Trypan Blue dye exclusion. Cell viability was greater than 95% for the cells to be utilized in the assay. The cells were resuspended at 5×10^4 cells per ml in tissue culture medium and added to the drug containing microtiter plates in a volume of 50 μL.
(§2) Plate Format—Each plate contains cell control wells (cells only), virus control wells (cells plus virus), drug toxicity wells (cells plus drug only), drug colorimetric control wells (drug only) as well as experimental wells (drug plus cells plus virus). Samples were tested in triplicate with eleven half-log dilutions per compound.
(§3) Efficacy and Toxicity XTT—Following incubation at 37° C. in a 5% CO2 incubator, the test plates were stained with the tetrazolium dye XTT (2,3-bis(2-methoxy-4-nitro-5-sulfophenyl)-5-[(phenylamino)carbonyl]-2H-tetrazolium hydroxide). XTT-tetrazolium is metabolized by the mitochondrial enzymes of metabolically active cells to a soluble formazan product, allowing rapid quantitative analysis of the inhibition of HIV induced cell killing by anti-HIV test substances. XTT solution was prepared daily as a stock of 1 mg/mL in RPMI1640. Phenazine methosulfate (PMS) solution was prepared at 0.15 mg/mL in PBS and stored in the dark at −20° C. XTT/PMS stock was prepared immediately before use by adding 40 μL of PMS per ml of XTT solution. Fifty microliters of XTT/PMS was added to each well of the plate and the plate was re-incubated for 4 hours at 37° C. Plates were sealed with adhesive plate sealers and shaken gently or inverted several times to mix the soluble fosmazan product and the plate was read spectrophotometrically at 450/650 nm with a Molecular Devices Vmax plate reader.
(§4) Data Analysis—Raw data was collected from the Softmax Pro 4.6 software and imported into a Excel XLFit4 spreadsheet for analysis by four parameter curve fit calculations. Both antiviral activity and toxicity are calculated.

CEM-SS cells = test: as above; format: cell-based; conditions: human
Procedure: as §1, §2, §3, §4

in vitro = in vitro ADME; conditions: human
Procedure: (§5) Each determination was performed in duplicate.
(§6) Vr is the volume of the receiver compartment in cm^3.
(§7) Vd is the volume of the donor compartment in cm^3.
(§8) A is the area of the cell monolayer (1.13 cm^2 for 12-well Transwell®).
(§9) CN is the nominal dosing concentration of the dosing solution in μM.
(§10) CA is the average of the nominal dosing concentration and the measured 120 minute donor concentration in μM.
(§11) Cr^final is the receiver concentration in μM at the end of the incubation period.
(§12) Cd^final is the concentration of the donor in μM at the end of the incubation period.

Caco-2 monolayers = test: in vitro; format: in vitro ADME; conditions: human, Caco-2, 2 h, 10 μM, pH 7.4
Procedure: as §5, §6, §7, §8, §9, §10, §11, §12

CC(C)Nc1cccnc1N1CCN(C(=O)c2cc3cc(NS(C)(=O)=O)ccc3[nH]2)CC1 [Delavirdine Mesylate, reference compound]
pKa1 [1]: 4.323 | pKa2 [1]: 9.272 | logP [2]: 3.5 | CC50 [3]: 27.2 µM | CC50 (CEM-SS cells): 52.4 µM | Papp A→B at 2 hours, 10 μM (in vitro; Caco-2, pH 7.4, Average Papp, A→B): 9.87 ×10⁻⁶ cm/s | Papp B→A at 2 hours, 10 μM (in vitro; Caco-2, pH 7.4, Average Papp, B→A): 67.9 ×10⁻⁶ cm/s | recovery at 2 h, 10 μM (in vitro; Caco-2, pH 7.4, Recovery (%) A→B): 65% | Recovery (%) A→B (Caco-2 monolayers): 82% | Recovery (%) B→A (Caco-2 monolayers): 86%
